Test results as given in BindingDB's records for patent US20240116948 (Chiesi Farmaceutici, 2024).
pIC50: −log10 of the molar value.

Target: T1, TGF-beta receptor type-1 (Homo sapiens, UniProt P36897)
T1 sequence (P36897 whole entry): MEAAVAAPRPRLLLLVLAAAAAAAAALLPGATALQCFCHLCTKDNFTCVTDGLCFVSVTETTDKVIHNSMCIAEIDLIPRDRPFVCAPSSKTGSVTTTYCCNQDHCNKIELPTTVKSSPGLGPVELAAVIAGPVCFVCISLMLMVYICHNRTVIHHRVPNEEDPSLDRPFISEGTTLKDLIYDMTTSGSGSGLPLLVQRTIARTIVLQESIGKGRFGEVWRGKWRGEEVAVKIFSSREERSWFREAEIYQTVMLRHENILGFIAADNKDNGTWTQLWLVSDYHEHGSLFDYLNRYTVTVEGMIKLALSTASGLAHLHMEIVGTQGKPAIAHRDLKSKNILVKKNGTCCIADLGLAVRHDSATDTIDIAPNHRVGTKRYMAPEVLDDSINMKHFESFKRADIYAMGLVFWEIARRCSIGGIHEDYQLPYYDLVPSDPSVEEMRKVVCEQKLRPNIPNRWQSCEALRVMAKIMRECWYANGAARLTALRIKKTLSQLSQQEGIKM
Test: In Vitro Assay
Protocol: The enzymatic activity of compounds of the present invention was monitored measuring the formation of ADP using the ADP-GLO Kinases assay. Following the incubation of the purified enzyme, a substrate and ATP, the produced ADP was converted into ATP, which in turn was converted into light by Ultra-Glo Luciferase. The luminescent signal positively correlated with ADP amount and kinase activity. Briefly, the kinase reaction was performed by incubating 2.6 nM of the purified, commercially available human ALK5 (recombinant TGF 31 N-term GST-tagged, 80-end), a final concentration of TGFβ1 peptide 94.5 μM (Promega, T36-58) and ultra-pure ATP (Promega V915B). The ATP concentration was set at the Km value (concentration of substrate which permits the enzyme to achieve half maximal velocity (Vmax)) of ALK5 (5 μM). All reactions/incubations were performed at 25° C. Compound and ALK5 kinase were mixed and incubated for 15 mins. Reactions were initiated by addition of ATP at a final concentration in the assay of […]. After an incubation of 150 min, the reaction was stopped, and ADP production detected with ADP-Glo kit according to manufacturer's indications. The assay was performed in 384-well format and was validated using a selection of reference compounds that was tested in 11 point concentration-response curve.

pIC50	SMILES
> 9.00	O=C(CCN1CCCC1)Nc1cncc(-c2cc(-c3cc(Cl)ccc3F)nc3c2OCCN3)c1 [US20240116948, Example 12]
> 9.00	CNCCCC(=O)Nc1cncc(-c2cc(-c3cc(Cl)ccc3F)nc3c2OCCN3)c1 [US20240116948, Example 31]
> 9.00	CN(C)CCC(=O)Nc1cncc(-c2cc(-c3cc(Cl)ccc3F)nc3c2OCCN3)c1 [US20240116948, Example 8]
> 9.00	CN(CCO)CCC(=O)Nc1cncc(-c2cc(-c3cc(Cl)ccc3F)nc3c2OCCN3)c1 [US20240116948, Example 44]
> 9.00	CN(C)CCCOc1cncc(-c2cc(-c3cc(Cl)ccc3F)nc3c2OCCN3)c1 [US20240116948, Example 27]
> 9.00	CN1CCC(Oc2cncc(-c3cc(-c4cc(Cl)ccc4F)nc4c3OCCN4)c2)CC1 [US20240116948, Example 41]
